{
  "source": "patent US20070065524A1",
  "about": "“Pharmaceutical composition containing guaiacol derivatives and syringol derivatives extracted from natural plant vinegar” (priority 2003, published 2007)",
  "experiment": "DPPH free radical scavenging ability",
  "format": "biochemical",
  "method": "For example, a method using DPPH(1,1-diphenyl-2-picrylhydrazin) can be used.\nDPPH scavenging ability, as described later, was evaluated by using each fraction.\n4 ml of samples with 0.1, 0.05, 0.005, 0.001, 0.0005 and 0.0001 mg/ml diluted with methanol and 1 ml of 0.1 mM DPPH methanol solution were put into test tubes and mixed well, and left in a dark place for 30 minutes. Then absorbance of the mixture at 520 nm was read and compared with that of the BHT standard solution. The reducing power of samples can be indicated as scavenging activity (SC50) and SC50 is the concentration of samples that makes the concentration of DPPH reduce to 50%.",
  "data": [
    {"smiles": "Cc1cc(C(C)(C)C)c(O)c(C(C)(C)C)c1", "note": "[BHT, butylated hydroxy toluene]", "values": [
      {"measurement": "Free radical removal ability", "setting": "Conc. 10 ug/ml", "value": "23.30 ± 1.94", "unit": "%"},
      {"measurement": "Free radical removal ability", "setting": "Conc. 50 ug/ml", "value": "68.41 ± 1.55", "unit": "%"},
      {"measurement": "Free radical removal ability", "setting": "Conc. 100 ug/ml", "value": "87.73 ± 0.64", "unit": "%"},
      {"measurement": "Free radical removal ability", "setting": "Conc. 500 ug/ml", "value": "96.03 ± 0.12", "unit": "%"}
    ]}
  ]
}
